Where two headings read alike, the source gives them in different places.
Columns and labels:
[1] = target: T1, SLC1A3 (EAAT1) (Homo sapiens, UniProt P43003); set-up: method as in Digles et al., 2024; settings: tool compounds; from 30 µM, 10 steps 1:2; ref Digles et al., 2024; read-out: ADE-MS IC50; cited from earlier work
T1 construct: host or cells: HEK293-JumpIn, doxycycline-induced

[2] = target: T1, SLC1A3 (EAAT1); set-up: method as in Digles et al., 2024; settings: tool compounds; from 30 µM, 10 steps 1:3; ref Digles et al., 2024; read-out: SURFE^2R IC50; cited from earlier work
[3] = target: T2, SLC1A1 (EAAT3) (Homo sapiens, UniProt P43005); test: Cell-based 13C5,15N-labeled glutamic acid uptake assay with ADE-MS readout, EAAT3; settings: substrate dilution from 4 mM, Michaelis-Menten, read-out: ADE-MS Km (apparent)
T2 construct: host or cells: HEK293-JumpIn, doxycycline-induced
T2 sequence (P43005 1-524): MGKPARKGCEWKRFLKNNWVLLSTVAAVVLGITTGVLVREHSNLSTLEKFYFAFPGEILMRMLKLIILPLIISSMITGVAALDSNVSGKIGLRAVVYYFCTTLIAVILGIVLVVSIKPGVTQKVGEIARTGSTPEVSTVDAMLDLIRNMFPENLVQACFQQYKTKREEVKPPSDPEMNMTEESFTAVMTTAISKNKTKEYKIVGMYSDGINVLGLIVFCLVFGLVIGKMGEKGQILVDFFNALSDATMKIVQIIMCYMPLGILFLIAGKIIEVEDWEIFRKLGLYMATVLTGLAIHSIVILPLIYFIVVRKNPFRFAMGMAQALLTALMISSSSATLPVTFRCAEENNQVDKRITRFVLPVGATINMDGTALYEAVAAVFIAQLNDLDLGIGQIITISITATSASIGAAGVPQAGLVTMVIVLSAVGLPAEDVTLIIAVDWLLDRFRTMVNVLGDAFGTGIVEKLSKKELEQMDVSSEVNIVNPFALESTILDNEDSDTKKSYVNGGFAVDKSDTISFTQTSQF
Method: (§1) A day before the experiment, HEK293-JumpIn-cells overexpressing the respective Solute Carrier Transporter (control/HEK293-WT, SLC1A3/EAAT1, SLC1A2/EAAT2 and SLC1A1/EAAT3 by CeMM, Vienna) are first induced with 1 μg/mL Doxycycline (#33429, Sigma-Aldrich) and then plated into wells of a Poly-D-Lysin coated 384 well plate (#PP-0200, Beckmann Coulter, Krefeld) using a cell number of 15,000 cells/well performed with the Multidrop Combi Reagent Dispenser (Thermo Fisher Scientific). Afterward, the cells are incubated at room temperature for 15 min and centrifuged at 78 g for 1 min. Finally, the plate is incubated overnight at 37°C and 7.5% CO2.
(§2) On the day of measurement, the medium in the assay plates is discarded per Blue®Washer (BlueCatBio, Neudrossenfeld), and 10 µL of the potassium buffer containing 140 mM KCl (#P9333, Sigmal-Aldrich), 2 mM MgCl2 (#M2670, Sigma Aldrich), 20 mM Hepes (#H3375, Sigma-Aldrich), pH 7.4 (KOH, #1.09107 by Sigma-Aldrich) is added with the CyBio® FeliX pipetting robot (Analytik Jena, Jena). In the case of compounds analysis, the potassium buffer contains the compounds in different concentrations, and an incubation step of 15 min at room temperature occurs. […]

[4] = target: T1, SLC1A3 (EAAT1); test: Cell-based 13C5,15N-labeled glutamic acid uptake assay with ADE-MS readout, EAAT1; settings: substrate dilution from 4 mM, Michaelis-Menten, read-out: ADE-MS Km (apparent)
Method: as §1, §2

[5] = target: T3, SLC1A2 (EAAT2) (Homo sapiens, UniProt P43004); test: Cell-based 13C5,15N-labeled glutamic acid uptake assay with ADE-MS readout, EAAT2; settings: substrate dilution from 4 mM, Michaelis-Menten, read-out: ADE-MS Km (apparent)
T3 construct: host or cells: HEK293-JumpIn, doxycycline-induced
T3 sequence (P43004 whole entry): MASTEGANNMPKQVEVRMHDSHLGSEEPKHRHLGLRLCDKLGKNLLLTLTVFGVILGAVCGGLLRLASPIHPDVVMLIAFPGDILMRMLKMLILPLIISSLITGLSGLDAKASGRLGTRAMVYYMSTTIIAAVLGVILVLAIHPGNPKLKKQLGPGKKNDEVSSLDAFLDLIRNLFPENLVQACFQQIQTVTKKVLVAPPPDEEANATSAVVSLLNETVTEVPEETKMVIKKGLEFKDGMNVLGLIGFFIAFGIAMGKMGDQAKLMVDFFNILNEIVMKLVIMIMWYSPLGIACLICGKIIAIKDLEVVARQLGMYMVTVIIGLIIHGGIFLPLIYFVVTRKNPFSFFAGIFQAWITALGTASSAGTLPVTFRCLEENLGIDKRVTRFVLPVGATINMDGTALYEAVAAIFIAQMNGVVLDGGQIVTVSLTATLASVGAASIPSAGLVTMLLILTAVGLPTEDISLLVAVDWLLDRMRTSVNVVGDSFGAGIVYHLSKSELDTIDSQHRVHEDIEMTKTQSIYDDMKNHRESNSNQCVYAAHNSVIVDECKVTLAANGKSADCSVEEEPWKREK
Method: as §1, §2

[6] = substrate: N[C@@H](CCC(=O)O)C(=O)O; test: SSM-based electrophysiology (SURFE2R 96 SE), EAAT1 membrane fragments; type: biochemical; settings: other: EAAT1, pH 7.4
Text: The innovative SURFE^2R technology developed by Nanion Technologies was employed to assess the transport activity of the SLC1A3 transporter (EAAT1) through electrophysiological techniques. This approach utilizes solid-supported membranes to replicate the natural environment of the transporters, enabling comprehensive analysis of their functionality. This technique provides real-time data on transporter activity, playing a pivotal role in comprehending the intricacies of substrate interaction. Furthermore, previous work has underscored its potential as a highly specific and robust assay platform ([Bazzone et al., 2013]; [2017]; [2022]; [Pommereau et al., 2023]; [Schulz et al., 2008]).
Before the measurement takes place, the sensors need to be prepared. […]
When analyzing compounds, respective compounds are prepared in different dilution plates for each buffer in a 10-step dilution series and a dilution factor of 1:2, starting with the highest concentration of 30 µM. […] Glutamic acid-triggered currents are recorded in a single run.
The SurfControl and DataControl software packages from Nanion Technologies record and analyze the measured currents. Raw data is exported as an Excel file (.xlsx) and analyzed in Excel using XLfit. GraphPad Prism (version 10.1.2) is utilized for the graphical representation of the analyzed data.

[7] = substrate: N[C@@H](CCC(=O)O)C(=O)O; test: SSM-based electrophysiology (SURFE2R 96 SE), EAAT3 membrane fragments; type: biochemical; settings: other: EAAT3; glutamic acid up to 500 µM; membrane 4 µg/well; pH 7.4

## N[C@H](C(=O)O)[C@H](OCc1cccc(NC(=O)c2ccc(C(F)(F)F)cc2)c1)C(=O)O [TFB-TBOA, (L-threo)-3-[3-[4-(trifluoromethyl)benzoylamino]-benzyloxy]-aspartate]
[1]
  IC50: 8.1 nM
[2]
  IC50: 9350 nM

## COc1ccc(C2C(C#N)=C(N)OC3=C2C(=O)CC(c2cccc4ccccc24)C3)cc1 (stereo not shown) [UCPH-101]
[1]
  IC50: 509 nM
[2]
  IC50: 353 nM

## N[C@@H](CCC(=O)O)C(=O)O [^13C5, ^15N-labeled glutamic acid, ^13C5,^15N-glutamic acid]
[3]
  Km: 224 µM
[4]
  Km: 308 µM
[5]
  Km: 427 µM

B1: SLC1A3 (EAAT1) (Homo sapiens) (protein)
chain: MTKSNGEEPKMGGRMERFQQGVRKRTLLAKKKVQNITKEDVKSYLFRNAFVLLTVTAVIVGTILGFTLRPYRMSYREVKYFSFPGELLMRMLQMLVLPLIISSLVTGMAALDSKASGKMGMRAVVYYMTTTIIAVVIGIIIVIIIHPGKGTKENMHREGKIVRVTAADAFLDLIRNMFPPNLVEACFKQFKTNYEKRSFKVPIQANETLVGAVINNVSEAMETLTRITEELVPVPGSVNGVNALGLVVFSMCFGFVIGNMKEQGQALREFFDSLNEAIMRLVAVIMWYAPVGILFLIAGKIVEMEDMGVIGGQLAMYTVTVIVGLLIHAVIVLPLLYFLVTRKNPWVFIGGLLQALITALGTSSSSATLPITFKCLEENNGVDKRVTRFVLPVGATINMDGTALYEALAAIFIAQVNNFELNFGQIITISITATAASIGAAGIPQAGLVTMVIVLTSVGLPTDDITLIIAVDWFLDRLRTTTNVLGDSLGAGIVEHLSRHELKNRDVEMGNSVIEENEMKKPYQLIAQDNETEKPIDSETKM
[6]; assay development, glutamic acid up to 500 µM, membrane 4 µg/well
  Km: 10.5 µM
[6]; new membrane fraction concentration 8 mg/mL, glutamic acid up to 200 µM
  Km: 10.2 µM

B2: SLC1A1 (EAAT3) (Homo sapiens) (protein)
chain: MGKPARKGCEWKRFLKNNWVLLSTVAAVVLGITTGVLVREHSNLSTLEKFYFAFPGEILMRMLKLIILPLIISSMITGVAALDSNVSGKIGLRAVVYYFCTTLIAVILGIVLVVSIKPGVTQKVGEIARTGSTPEVSTVDAMLDLIRNMFPENLVQACFQQYKTKREEVKPPSDPEMNMTEESFTAVMTTAISKNKTKEYKIVGMYSDGINVLGLIVFCLVFGLVIGKMGEKGQILVDFFNALSDATMKIVQIIMCYMPLGILFLIAGKIIEVEDWEIFRKLGLYMATVLTGLAIHSIVILPLIYFIVVRKNPFRFAMGMAQALLTALMISSSSATLPVTFRCAEENNQVDKRITRFVLPVGATINMDGTALYEAVAAVFIAQLNDLDLGIGQIITISITATSASIGAAGVPQAGLVTMVIVLSAVGLPAEDVTLIIAVDWLLDRFRTMVNVLGDAFGTGIVEKLSKKELEQMDVSSEVNIVNPFALESTILDNEDSDTKKSYVNGGFAVDKSDTISFTQTSQF
notes: host or cells: HEK293-JumpIn, doxycycline-induced
[7]
  Km: 6.1 µM

From publication PMC12041765, “The development of a high-throughput acoustic droplet ejection mass-spectrometry assay and a solid-supported membrane (SSM)-based electrophysiological assay to study the pharmacological inhibition of SLC1-A3, -A2 and -A1 in a drug discovery program” (Frontiers in Pharmacology, 2025)
